For twelve compounds, pest or weed control and inhibition of growth results are on record in patent publication US10501425B2, “Microbiocidal oxadiazole derivatives” (SYNGENTA PARTICIPATIONS AG, priority 2015, dated 2019).

For experiment [1], the system named is Puccinia recondita f. Sp. Tritici. Put plainly: Puccinia recondita f. sp. tritici / wheat / leaf disc preventative (brown rust). It is filed as in vivo. The conditions noted are these: foliar, 200 ppm in the applied formulation, wheat leaf segments cv. Kanzler, preventative (inoculated 1 day after application), compared to untreated, read-out: disease control. As for the experimental part: Leaf disks or leaf segments of various plant species are cut from plants grown in a greenhouse. The cut leaf disks or segments are placed in multiwell plates (24-well format) onto water agar. The leaf disks are sprayed with a test solution before (preventative) or after (curative) inoculation. Compounds to be tested are prepared as DMSO solutions (max. 10 mg/ml) which are diluted to the appropriate concentration with 0.025% Tween20 just before spraying. The inoculated leaf disks or segments are incubated under defined conditions (temperature, relative humidity, light, etc.) according to the respective test system. A single evaluation of disease level is carried out 3 to 14 days after inoculation, depending on the pathosystem. Percent disease control relative to the untreated check leaf disks or segments is then calculated. Wheat leaf segments cv. Kanzler were placed on agar in multiwell plates (24-well format) and sprayed with the formulated test compound diluted in water. The leaf disks were inoculated with a spore suspension of the fungus 1 day after application. The inoculated leaf segments were incubated at 19° C. and 75% relative humidity (rh) under a light regime of 12 hours light/12 hours darkness in a climate cabinet and the activity of a compound was assessed as percent disease control compared to untreated when an appropriate level of disease damage appears in untreated check leaf segments (7 to 9 days after application). The following compounds at 200 ppm in the applied formulation give at least 80% disease control in this test when compared to untreated control leaf disks under the same conditions, which show extensive disease development.

Experiment [2] deals with Glomerella lacenarium (Colletotrichum lagenarium). Put plainly: Glomerella lagenarium liquid culture / cucumber / preventative (anthracnose). The conditions noted are these: Colletotrichum orbiculare; 20 ppm in the applied formulation; liquid culture (PDB), growth inhibition measured photometrically 3 to 4 days after application; compared to untreated; read-out: disease control. It is filed as cell-based. On the procedure:
Mycelia fragments or conidia suspensions of a fungus prepared either freshly from liquid cultures of the fungus or from cryogenic storage, are directly mixed into nutrient broth. DMSO solutions of the test compound (max. 10 mg/ml) are diluted with 0.025% Tween20 by a factor of 50 and 10 μl of this solution is pipetted into a microtiter plate (96-well format). The nutrient broth containing the fungal spores/mycelia fragments is then added to give an end concentration of the tested compound. The test plates are incubated in the dark at 24° C. and 96% relative humidity. The inhibition of fungal growth is determined photometrically after 2 to 7 days, depending on the pathosystem, and percent antifungal activity relative to the untreated check is calculated.
Conidia of the fungus from cryogenic storage are directly mixed into nutrient broth (PDB—potato dextrose broth). After placing a (DMSO) solution of test compound into a microtiter plate (96-well format), the nutrient broth containing the fungal spores is added.
The following compounds at 20 ppm in the applied formulation give at least 80% disease control in this test when compared to untreated control under the same conditions, which show extensive disease development.

With `CC(C)CNC(=O)NCc1ccc(-c2noc(C(F)(F)F)n2)cc1` [Compound 3.11, 1-isobutyl-3-[[4-[5-(trifluoromethyl)-1,2,4-oxadiazol-3-yl]phenyl]methyl]urea], in experiment [1], the pest or weed control at 200 ppm was no less than 80%. Moreover, the inhibition of growth at 20 ppm in experiment [2] was no less than 80%.

With `COCC(=O)NCc1ccc(-c2noc(C(F)(F)F)n2)cc1C(F)(F)F` [Compound 1.70, 2-methoxy-N-[[2-(trifluoromethyl)-4-[5-(trifiuoromethyl)-1,2,4-oxadiazol-3-yl]phenyl]methyl]acetamide], in experiment [2], the inhibition of growth at 20 ppm is no less than 80%.

Turning to `CCCCNC(=O)NCc1ccc(-c2noc(C(F)(F)F)n2)cn1` [Compound 3.20, 1-butyl-3-[[5-[5-(trifluoromethyl)-1,2,4-oxadiazol-3-yl]-2-pyridyl]methyl]urea], the pest or weed control at 200 ppm in experiment [1] was no less than 80%. Besides, in experiment [2], the inhibition of growth at 20 ppm was no less than 80%.

On to `CC(C)(C)CNC(=O)NCc1ccc(-c2noc(C(F)(F)F)n2)cc1` [Compound 3.8, 1-(2,2-dimethylpropyl)-3-[[4-[5-(trifluoromethyl)-1,2,4-oxadiazol-3-yl]phenyl]methyl]urea], for which the pest or weed control at 200 ppm in experiment [1] is no less than 80%.

Regarding `CC(=O)NCc1ccc(-c2noc(C(F)(F)F)n2)cc1Cl` [Compound 1.64, N-[[2-chloro-4-[5-(trifluoromethyl)-1,2,4-oxadiazol-3-yl]phenyl]methyl]acetamide], the pest or weed control at 200 ppm in experiment [1] was no less than 80%. The inhibition of growth at 20 ppm in experiment [2] was no less than 80%.

Turning to `COCCC(=O)NCc1ccc(-c2noc(C(F)(F)F)n2)cc1Cl` [Compound 1.55, N-[[2-chloro-4-[5-(trifluoromethyl)-1,2,4-oxadiazol-3-yl]phenyl]methyl]-3-methoxy-propanamide], the inhibition of growth at 20 ppm in experiment [2] is no less than 80%.

Consider `CCC(C)C(=O)NCc1ccc(-c2noc(C(F)(F)F)n2)cc1Cl` (stereo not shown) [Compound 1.58, N-[[2-chloro-4-[5-(trifluoromethyl)-1,2,4-oxadiazol-3-yl]phenyl]methyl]-2-methyl-butanamide], for which the inhibition of growth at 20 ppm in experiment [2] is no less than 80%.

`CC(C)C(=O)NCc1ccc(-c2noc(C(F)(F)F)n2)cc1Cl` [Compound 1.50, N-[[2-chloro-4-[5-(trifluoromethyl)-1,2,4-oxadiazol-3-yl]phenyl]methyl]-2-methyl-propanamide]: in experiment [2], the inhibition of growth at 20 ppm is no less than 80%.

Consider `O=C(NCCCCl)NCc1ccc(-c2noc(C(F)(F)F)n2)cn1` [Compound 3.19], for which the pest or weed control at 200 ppm in experiment [1] was no less than 80%.

With `CCCCCOC(=O)NCc1ccc(-c2noc(C(F)(F)F)n2)cc1` [Compound 2.9, pentyl N-[[4-[5-(trifluoromethyl)-1,2,4-oxadiazol-3-yl]phenyl]methyl]carbamate], the pest or weed control at 200 ppm in experiment [1] is no less than 80%.

On to `CCCCCOC(=O)NCc1ccc(-c2noc(C(F)(F)F)n2)cn1` [Compound 2.23, pentyl N-[[5-[5-(trifluoromethyl)-1,2,4-oxadiazol-3-yl]-2-pyridyl]methyl]carbamate], for which the pest or weed control at 200 ppm in experiment [1] was no less than 80%. The inhibition of growth at 20 ppm in experiment [2] is no less than 80%.

As to `CCCC(=O)NCc1ccc(-c2noc(C(F)(F)F)n2)cc1Cl` [Compound 1.52, N-[[2-chloro-4-[5-(trifiuoromethyl)-1,2,4-oxadiazol-3-yl]phenyl]methyl]butanamide], in experiment [2], the inhibition of growth at 20 ppm is no less than 80%.
